Source: publication PMC4493641, “Enhancement of E. coli acyl-CoA synthetase FadD activity on medium chain fatty acids” (PeerJ, 2015)

T1: FadD (Escherichia coli, UniProt P69451)
T1 construct: full-length, C-terminal His6 tag kept, pETDuet-1 (TJF032), expressed in E. coli BL21*(DE3) delta-fadD, partially purified by Ni-NTA
T1 sequence (P69451 1-561): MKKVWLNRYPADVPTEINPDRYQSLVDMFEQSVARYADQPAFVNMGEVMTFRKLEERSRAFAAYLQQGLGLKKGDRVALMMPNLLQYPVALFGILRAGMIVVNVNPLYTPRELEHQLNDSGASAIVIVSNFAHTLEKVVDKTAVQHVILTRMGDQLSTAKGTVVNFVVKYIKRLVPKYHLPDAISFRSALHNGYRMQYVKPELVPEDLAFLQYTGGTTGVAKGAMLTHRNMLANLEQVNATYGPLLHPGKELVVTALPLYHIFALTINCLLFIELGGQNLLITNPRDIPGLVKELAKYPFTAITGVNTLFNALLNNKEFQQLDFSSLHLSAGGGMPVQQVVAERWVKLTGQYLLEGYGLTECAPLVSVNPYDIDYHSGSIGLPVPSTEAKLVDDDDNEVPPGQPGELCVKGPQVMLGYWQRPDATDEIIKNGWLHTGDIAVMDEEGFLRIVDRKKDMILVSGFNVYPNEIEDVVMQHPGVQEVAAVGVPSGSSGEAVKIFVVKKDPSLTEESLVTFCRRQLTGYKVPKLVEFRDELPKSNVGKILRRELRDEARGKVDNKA

B1: FadD (Escherichia coli K-12) (protein)
chain: T1 sequence (P69451 1-561)

Legend:
FadD = target: T1, FadD; assay: coupled AMP production assay (myokinase / pyruvate kinase / lactate dehydrogenase, NADH oxidation at […] nm); format: biochemical; conditions: 2.5 mM ATP, 0.5 mM CoA, 8 mM MgCl2, 0.1% Triton X-100, pH 7.5, 30 °C; partially purified
purified protein = substrate: CCCCCCCC(=O)O; assay: purified protein; conditions: 2.5 mM ATP, 0.5 mM CoA, 8 mM MgCl2, 0.1% Triton X-100, pH 7.5, 30 °C, partially purified

Molecule	Km (FadD)	Km (purified protein)
CCCCCCCC/C=C\CCCCCCCC(=O)O [oleate]	Vmax (A) and Km (B) values for the indicated substrates	
B1		422 µM
